Source: patent publication US20240351996A1, “CDK19-SELECTIVE INHIBITORS, AND METHODS OF USE THEREOF” (CZ BIOHUB SF, LLC, priority 2022, published 2024)

How the values were obtained:
[1] = molecular target: CDK19/CycC (Homo sapiens, UniProt Q9BWU1); test: LanthaScreen europium kinase binding assay (FRET displacement), CDK19; conditions: for CDK19 Selectivity: CDK19/CDK8 selectivity based on IC50 values; for IC50: his-tagged CDK19/CycC 5 nM, tracer 10 nM, 3 h incubation
Protocol: (§1) FRET Displacement Assay to Measure IC50: The CDK19/CDK8 IC50 values were measured to evaluate activity and to determine CDK19/CDK8 selectivity. The IC50 values of the disclosed compounds was measured using a LanthaScreen™ europium kinase binding assay (ThermoFisher), as described herein.
To a kinase buffer cocktail solution (i.e., 5× Kinase Buffer A) was added: purified recombinant his-tagged CDK19/CycC protein (5 nM), ATP-competitive kinase inhibitor scaffold kinase tracer Alexa Fluor® 665 (10 nM), biotin anti-his tag antibody (2 nM), LanthaScreen® europium-streptavidin (2 nM). An aliquot of the cocktail solution (10 μL) was added to each well of a LUMITRAC™ 200:384 flat bottom, non-treated microtiter white plate. The plate was then covered to protect light sensitive reagents and incubated for 30 min at room temperature to equilibrate before addition of any inhibitors.
(§2) A serial dilution of the compounds was titrated into each well using an automated liquid handling Staccato integrated system at the following concentration(s) (Log10 Molar [C]): −4.5, −5.0, −5.5, −6.0, −6.5, −7.0, −7.5, −8.0 so that a complete dose-response could be calculated. A Tecan microplate reader infinite m200 instrument was then used to measure the FRET signal of each individual well using an excitation of 317/20 nm, emission europium of 620/12 nm, and emission kinase tracer of 665/12 nm after a 3 h incubation period at room temperature until steady-state kinetics were achieved.
(§3) Results were performed in duplicate and were repeated a total of 3 independent times before data was normalized to the DMSO control group and IC50 values reported.

[2] = molecular target: CDK8 (Homo sapiens, UniProt P49336); test: LanthaScreen europium kinase binding assay (FRET displacement), CDK8
CDK8, sequence (P49336 whole entry): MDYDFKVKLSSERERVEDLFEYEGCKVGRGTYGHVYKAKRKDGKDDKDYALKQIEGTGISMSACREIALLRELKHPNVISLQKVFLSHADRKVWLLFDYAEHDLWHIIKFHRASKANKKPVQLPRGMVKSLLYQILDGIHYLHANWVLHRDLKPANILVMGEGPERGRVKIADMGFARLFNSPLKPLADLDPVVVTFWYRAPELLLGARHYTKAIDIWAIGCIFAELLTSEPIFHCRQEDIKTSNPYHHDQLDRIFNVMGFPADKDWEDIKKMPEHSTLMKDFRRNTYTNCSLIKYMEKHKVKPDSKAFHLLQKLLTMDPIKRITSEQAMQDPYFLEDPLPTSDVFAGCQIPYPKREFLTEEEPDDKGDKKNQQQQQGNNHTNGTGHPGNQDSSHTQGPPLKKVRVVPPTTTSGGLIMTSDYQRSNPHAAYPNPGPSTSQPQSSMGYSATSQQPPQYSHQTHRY
CDK8, sequence (P24863 whole entry partner): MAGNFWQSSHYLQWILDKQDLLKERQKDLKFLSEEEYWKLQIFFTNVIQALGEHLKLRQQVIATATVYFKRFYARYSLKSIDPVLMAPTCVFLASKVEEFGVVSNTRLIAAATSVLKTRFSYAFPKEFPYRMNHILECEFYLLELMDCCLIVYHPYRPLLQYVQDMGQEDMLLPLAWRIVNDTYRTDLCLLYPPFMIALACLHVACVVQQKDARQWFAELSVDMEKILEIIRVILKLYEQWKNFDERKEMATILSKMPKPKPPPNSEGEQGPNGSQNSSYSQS
Protocol: as §1
[…] An aliquot of the cocktail solution (10 μL) was added to each well of a LUMITRAC™ 200:384 flat bottom, non-treated microtiter white plate. The plate was then covered to protect light sensitive reagents and incubated for 30 min at room temperature to equilibrate before addition of any inhibitors.
as §2, §3

CDK19/CycC, sequence (Q9BWU1 whole entry): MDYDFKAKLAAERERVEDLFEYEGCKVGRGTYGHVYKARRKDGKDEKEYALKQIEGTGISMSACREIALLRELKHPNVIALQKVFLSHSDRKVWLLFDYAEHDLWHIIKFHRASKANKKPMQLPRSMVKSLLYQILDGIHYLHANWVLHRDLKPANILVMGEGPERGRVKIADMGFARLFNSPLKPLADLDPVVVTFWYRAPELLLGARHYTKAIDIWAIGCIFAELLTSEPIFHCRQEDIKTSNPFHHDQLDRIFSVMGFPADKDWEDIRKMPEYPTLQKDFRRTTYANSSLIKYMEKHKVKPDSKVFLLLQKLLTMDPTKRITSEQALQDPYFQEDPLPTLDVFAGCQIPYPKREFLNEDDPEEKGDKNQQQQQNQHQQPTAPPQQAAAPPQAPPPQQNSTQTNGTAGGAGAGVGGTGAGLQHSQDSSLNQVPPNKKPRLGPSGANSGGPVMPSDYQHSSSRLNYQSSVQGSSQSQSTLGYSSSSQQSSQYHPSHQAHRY
CDK19/CycC, sequence (P24863 whole entry partner): as the sequence (P24863 whole entry partner) above

| Structure (SMILES) | CDK19 Selectivity [1] | IC50 [1] [nM] | IC50 [2] [nM] |
| --- | --- | --- | --- |
| Cc1cc(Nc2cnc(Nc3cccc(CC(C)C)c3)nc2)cc(C)n1 [Compound A30] | – | 10000 | 10000 |
| CC(C)Cc1ccc(Nc2ncc(-c3cccc(-c4ccncc4)c3)cn2)cc1 [Compound A155] | 3 | 6 | 19 |
| CC(C)Cc1ccc(Nc2ncc(C(F)(F)c3ccncc3)cn2)cc1 [Compound A139] | 3.2 | 5.5 | 18 |
| Cc1nc(Nc2ccc(CC(C)C)cc2)ncc1Nc1ccncc1C(F)(F)F [Compound A166] | 1 | 5 | 5 |
| CC(C)Cc1ccc(Nc2ncc(C(=O)c3ccncc3)cn2)c(F)c1 [Compound A129] | 2.4 | ≤ 2.5 | 3.5 |
| Cc1cc(Nc2cnc(Nc3ccc(CC(C)C)cc3)nc2)c(F)cn1 [Compound A174] | 4 | 7 | 33 |
| Fc1ccc(Nc2ncc(Oc3ccncc3)cn2)cc1 [Compound A142] | 1 | 10000 | 10000 |
| Cc1ccc(-c2ccc(Nc3ccc(CC(C)C)cc3)nc2)cc1 [Compound A77] | 3.5 | 1080 | 3760 |
| COc1cnccc1Nc1cnc(Nc2ccc(CC(C)C)cc2)nc1C [Compound A25] | 0.9 | 16 | 15 |
| CC(C)Cc1ccc(Nc2ncc(Nc3ccncc3Cl)cn2)c(F)c1 [Compound A58] | 2 | ≤ 2.5 | 2.8 |
| CC(C)Cc1ccc(Nc2ncc(Nc3cc(F)ncc3F)cn2)cc1 [Compound A175] | 4 | 36 | 129 |
| Fc1ccc(Nc2ccc(Nc3ccncc3)cn2)cc1 [Compound A84] | – | 10000 | 10000 |
| CC(C)Cc1ccc(Nc2ncc(-c3ccccc3)cn2)cc1 [Compound A102] | 1 | 10000 | 10000 |
| FC(F)(F)c1cnccc1Nc1cnc(Nc2ccc(C3CCOCC3)cc2)nc1 [Compound A181] | ≤1 | ≤ 2.5 | ≤ 2.5 |
| CC(C)Cc1cccc(Nc2ncc(Nc3cccnc3)cn2)c1 [Compound A31] | – | 9030 | 9930 |
| Cc1cc(C#N)cc(-c2cnc(Nc3ccc(CC(C)C)cc3)nc2)c1 [Compound A94] | 2 | 438 | 869 |
| CCCc1ccc(Nc2ncc(Nc3cc(C)nc(C)c3)cn2)cc1 [Compound A20] | – | 10000 | 10000 |
| Cc1cnccc1Nc1cnc(Nc2ccc(CC(C)C)cc2)nc1C [Compound A22] | 1.3 | 24 | 31 |
| COc1cnccc1Nc1cnc(Nc2ccc(CC(C)C)cc2)nc1 [Compound A50] | ≥6 | ≤ 2.5 | 16 |
| CC(C)Cc1ccc(Nc2ncc(C(C)(O)c3ccncc3)cn2)cc1 (stereo not drawn) [Compound A167] | 4 | 154 | 614 |
| Cc1cnccc1Nc1cnc(Nc2ccc(OC(C)C)cc2F)nc1 [Compound A162] | 4 | 89 | 362 |
| CCc1cnccc1Nc1cnc(Nc2ccc(C3CCCCC3)cc2)nc1 [Compound A68] | 1 | 12 | 12 |
| CC(C)Cc1ccc(Nc2ncc(Nc3ccc4c(c3)CNC4=O)cn2)cc1 [Compound A153] | – | 266 | 605 |
| CCc1cnccc1Nc1cnc(Nc2ccc(CC(C)C)cc2)nc1 [Compound A51] | ≥15 | ≤ 2.5 | 38 |
| CC(C)Cc1ccc(Nc2ncc(Nc3cncnc3)cn2)cc1 [Compound A63] | 4.8 | 1600 | 7790 |
| CC(C)Cc1ccc(Nc2ncc(S(=O)(=O)c3ccncc3)cn2)cc1 [Compound A152] | – | 1060 | 4630 |

Continued, values first:

| CDK19 Selectivity [1] | IC50 [1] [nM] | IC50 [2] [nM] | Structure (SMILES) |
| --- | --- | --- | --- |
| 1 | 4810 | 6330 | FC(F)(F)c1cc(Nc2ncc(Nc3ccncc3)cn2)cc(C(F)(F)F)c1 [Compound A44] |
| 1.2 | 69 | 59 | c1cc(Nc2cnc(Nc3ccc(C4CCCCC4)cc3)nc2)c(OC2CCCC2)cn1 [Compound A1] |
| – | 10000 | 10000 | COc1cc(N2CCN(C)CC2)ccc1Nc1ncc(Nc2ccncc2)cn1 [Compound A38] |
| 2 | 23 | 50 | Cc1cnc(F)cc1Nc1cnc(Nc2ccc(CC(C)C)cc2)nc1 [Compound A150] |
| 2.7 | 557 | 1490 | Cc1cc(C)cc(-c2cnc(Nc3ccc(CC(C)C)cc3)nc2)c1 [Compound A88] |
| 2 | 138 | 214 | c1cc(Nc2cnc(Nc3ccc(CC4CC4)cc3)nc2)ccn1 [Compound A45] |
| 5 | 52 | 244 | CC(C)Cc1ccc(Nc2ncc(Nc3ccnc(C4CC4)c3)cn2)cc1 [Compound A173] |
| 2 | 449 | 833 | Cc1cc(Nc2cnc(Nc3ccc(CC4CC4)cc3)nc2)ccn1 [Compound A42] |
| 2 | 1160 | 2270 | Cc1cc(Nc2cnc(Nc3ccc(CC(C)C)cc3)nc2)c(C)cn1 [Compound A65] |
| 3 | 265 | 797 | CC(C)Cc1ccc(Nc2ncc(C(=O)c3cccnc3)cn2)cc1 [Compound A133] |
| 1.1 | 7.6 | 8.2 | c1cc(Nc2cnc(Nc3ccc(C4CCCC4)cc3)nc2)c(OC2CCCC2)cn1 [Compound A3] |
| 5 | 31 | 160 | CC(C)Cc1ccc(Nc2ccc(C(=O)c3ccncc3F)cn2)cc1 [Compound A122] |
| 12 | 798 | 10000 | Cc1cc(-c2cnc(Nc3ccc(CC(C)C)cc3)nc2)ccc1C#N [Compound A91] |
| – | 10000 | 10000 | Cc1cc(Nc2cnc(Nc3cccc(C4CC4)c3)nc2)cc(C)n1 [Compound A27] |
| 4.6 | 88 | 407 | CC(C)Cc1ccc(Nc2ncc(Nc3ccnc(C(C)C)c3)cn2)cc1 [Compound A46] |
| 3 | 1720 | 5100 | CC(C)Cc1ccc(Nc2ccc(-c3ccccc3)cn2)cc1 [Compound A76] |
| 4.2 | 123 | 513 | COc1cc(CC(C)C)ccc1Nc1ncc(Nc2ccncc2)cn1 [Compound A36] |
| 3 | 20 | 62 | CC(C)Cc1ccc(Nc2ncc(C3(c4ccncc4)CC3)cn2)cc1 [Compound A169] |
| 3.1 | 99 | 310 | CCCc1ccc(Nc2ncc(Nc3ccnc(C)c3)cn2)cc1 [Compound A10] |
| 1 | 3 | 3 | CC(C)Cc1ccc(Nc2ncc(Nc3ccncc3C(F)(F)F)cn2)cc1 [Compound A154] |
| 5.6 | 1800 | 10000 | CC(C)Cc1ccc(Nc2ncc(-c3ccncc3)cn2)cc1 [Compound A99] |
| 3 | 33 | 95 | Cc1cnccc1Nc1cnc(Nc2ccc(OC(C)C)cc2)nc1 [Compound A160] |
| 3.8 | 8.9 | 34 | Cc1cc(CC(C)C)ccc1Nc1ncc(C(=O)c2ccncc2)cn1 [Compound A128] |
| – | ≤ 2.5 | 3 | CC(C)Oc1ccc(Nc2ncc(Nc3ccncc3C(F)(F)F)cn2)cc1 [Compound A177] |
| 3.9 | 2490 | 9360 | CC(C)Cc1ccc(Nc2ncc(C(=O)Nc3ccncc3)cn2)cc1 [Compound A49, 2-((4-isobutylphenyl)amino)-N-(pyridin-4-yl)pyrimidine-5-carboxamide] |
| 2 | 991 | 2030 | Cc1cc(Nc2cnc(Nc3cccc(CC(C)C)c3)nc2)ccn1 [Compound A29] |
| 2 | 5 | 11 | Cc1cc(CC(C)C)ccc1Nc1ncc(C(=O)c2ccncc2OC2CCCC2)cn1 [Compound A172] |
| 3 | 75 | 226 | CC(C)Cc1ccc(Nc2ncc(Nc3ccncc3C3CC3)cn2)cc1 [Compound A164] |
